Reference: PubChem BioAssay (NCI)
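Results reflect a 48-hour exposure of cells in 96-well plates to compound at five concentrations. Here, GI50 denotes the concentration required for 50% inhibition of growth. The concentration for full growth arrest is given as TGI.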

Experiments:
Test in all cases: DTP human tumour cell line panel, 48 h
786-0 renal = tested on: 786-0 renal
A498 renal = tested on: A498 renal
A549 NSCLC = tested on: A549 NSCLC
ACHN renal = tested on: ACHN renal
BT-549 breast = tested on: BT-549 breast
CAKI-1 renal = tested on: CAKI-1 renal
CCRF-CEM leukemia = tested on: CCRF-CEM leukemia
COLO 205 colon = tested on: COLO 205 colon
DU-145 prostate = tested on: DU-145 prostate
EKVX NSCLC = tested on: EKVX NSCLC
HCT-116 colon = tested on: HCT-116 colon
HCT-15 colon = tested on: HCT-15 colon
HL-60(TB) leukemia = tested on: HL-60(TB) leukemia
HOP-62 NSCLC = tested on: HOP-62 NSCLC
HOP-92 NSCLC = tested on: HOP-92 NSCLC
HS 578T breast = tested on: HS 578T breast
HT29 colon = tested on: HT29 colon
IGROV1 ovarian = tested on: IGROV1 ovarian
K-562 leukemia = tested on: K-562 leukemia
KM12 colon = tested on: KM12 colon
LOX IMVI melanoma = tested on: LOX IMVI melanoma
M14 melanoma = tested on: M14 melanoma
MALME-3M melanoma = tested on: MALME-3M melanoma
MCF7 breast = tested on: MCF7 breast
MDA-MB-231 breast = tested on: MDA-MB-231 breast
MDA-MB-435 = tested on: MDA-MB-435
MOLT-4 leukemia = tested on: MOLT-4 leukemia
NCI-H226 lung = tested on: NCI-H226 lung
NCI-H23 lung = tested on: NCI-H23 lung
NCI-H460 lung = tested on: NCI-H460 lung
NCI-H522 lung = tested on: NCI-H522 lung
NCI/ADR-RES ovarian = tested on: NCI/ADR-RES ovarian
OVCAR-3 ovarian = tested on: OVCAR-3 ovarian
OVCAR-4 ovarian = tested on: OVCAR-4 ovarian
OVCAR-5 ovarian = tested on: OVCAR-5 ovarian
OVCAR-8 ovarian = tested on: OVCAR-8 ovarian
PC-3 prostate = tested on: PC-3 prostate
RPMI-8226 leukemia = tested on: RPMI-8226 leukemia
RXF 393 renal = tested on: RXF 393 renal
SF-268 CNS = tested on: SF-268 CNS
SF-295 CNS = tested on: SF-295 CNS
SF-539 CNS = tested on: SF-539 CNS
SK-MEL-2 melanoma = tested on: SK-MEL-2 melanoma
SK-MEL-28 melanoma = tested on: SK-MEL-28 melanoma
SK-MEL-5 melanoma = tested on: SK-MEL-5 melanoma
SK-OV-3 ovarian = tested on: SK-OV-3 ovarian
SN12C renal = tested on: SN12C renal
SNB-19 CNS = tested on: SNB-19 CNS
SNB-75 CNS = tested on: SNB-75 CNS
SR leukemia = tested on: SR leukemia
SW-620 colon = tested on: SW-620 colon
T-47D breast = tested on: T-47D breast
TK-10 renal = tested on: TK-10 renal
U251 CNS = tested on: U251 CNS
UACC-257 melanoma = tested on: UACC-257 melanoma
UACC-62 melanoma = tested on: UACC-62 melanoma
UO-31 renal = tested on: UO-31 renal
HCC-2998 colon = tested on: HCC-2998 colon

In the case of `CCN(CC)CCCNc1ccc([N+](=O)[O-])c2nc3ccc(OC)cc3c(N)c12`, the TGI (786-0 renal) was 2900 nM, the TGI (A498 renal) was greater than 10 µM and the TGI (A549 NSCLC) was 3.61 µM. It also gave a TGI (ACHN renal) greater than 10 µM, a TGI (BT-549 breast) of 2900 nM and a TGI (CAKI-1 renal) greater than 10 µM. It also gave a TGI (CCRF-CEM leukemia) of 5.71 µM, a TGI (COLO 205 colon) of 2.67 µM and a TGI (DU-145 prostate) greater than 4.96 µM. It also gave a TGI (EKVX NSCLC) greater than 10 µM, a TGI (HCT-116 colon) of 2490 nM and a TGI (HCT-15 colon) of 3.15 µM. For the same compound, the TGI (HL-60(TB) leukemia) was 4.03 µM, the TGI (HOP-62 NSCLC) was greater than 10 µM and the TGI (HOP-92 NSCLC) was greater than 10 µM. The TGI (HS 578T breast) was 2.68 µM, the TGI (HT29 colon) was 3.95 µM and the TGI (IGROV1 ovarian) was greater than 5.08 µM. The TGI (K-562 leukemia) was 4.79 µM, the TGI (KM12 colon) was 3.16 µM and the TGI (LOX IMVI melanoma) was 3.37 µM. For the same compound, the TGI (M14 melanoma) was greater than 6.1 µM, the TGI (MALME-3M melanoma) was greater than 10 µM and the TGI (MCF7 breast) was greater than 6.17 µM. For the same compound, the TGI (MDA-MB-231 breast) was 3.29 µM, the TGI (MDA-MB-435) was 3120 nM and the TGI (MOLT-4 leukemia) was 3.86 µM. It also gave a TGI (NCI-H226 lung) greater than 10 µM, a TGI (NCI-H23 lung) of 4.03 µM and a TGI (NCI-H460 lung) of 3.32 µM. It also gave a TGI (NCI-H522 lung) of 4.69 µM, a TGI (NCI/ADR-RES ovarian) greater than 6.02 µM and a TGI (OVCAR-3 ovarian) greater than 6.31 µM. The TGI (OVCAR-4 ovarian) was 4.41 µM, the TGI (OVCAR-5 ovarian) was greater than 10 µM and the TGI (OVCAR-8 ovarian) was 5.6 µM. The TGI (PC-3 prostate) was 3.31 µM, the TGI (RPMI-8226 leukemia) was 4.81 µM and the TGI (RXF 393 renal) was greater than 10 µM. It also gave a TGI (SF-268 CNS) of 3.57 µM, a TGI (SF-295 CNS) of 3.64 µM and a TGI (SF-539 CNS) of 3.46 µM. It also gave a TGI (SK-MEL-2 melanoma) greater than 10 µM, a TGI (SK-MEL-28 melanoma) greater than 10 µM and a TGI (SK-MEL-5 melanoma) greater than 10 µM. For the same compound, the TGI (SK-OV-3 ovarian) was greater than 5.48 µM, the TGI (SN12C renal) was 3.64 µM and the TGI (SNB-19 CNS) was greater than 6.29 µM. For the same compound, the TGI (SNB-75 CNS) was 3.65 µM, the TGI (SR leukemia) was 4.05 µM and the TGI (SW-620 colon) was 3.11 µM. It also gave a TGI (T-47D breast) greater than 10 µM, a TGI (TK-10 renal) greater than 10 µM and a TGI (U251 CNS) greater than 10 µM. It also gave a TGI (UACC-257 melanoma) greater than 10 µM, a TGI (UACC-62 melanoma) greater than 10 µM and a TGI (UO-31 renal) greater than 10 µM.

In the case of `COc1ccc(-c2[nH]nc(N)c2-c2cc(OC)c3c(c2)OCO3)cc1`, the GI50 (786-0 renal) was 7.82 µM, the TGI (786-0 renal) was greater than 100000 nM and the GI50 (A498 renal) was 1880 nM. For the same compound, the TGI (A498 renal) was 6.75 µM, the GI50 (A549 NSCLC) was 4.73 µM and the TGI (A549 NSCLC) was greater than 100 µM. It also gave a GI50 (ACHN renal) of 6.88 µM, a TGI (ACHN renal) greater than 100 µM and a GI50 (BT-549 breast) of 7.71 µM. It also gave a TGI (BT-549 breast) greater than 100000 nM, a GI50 (CAKI-1 renal) of 3.98 µM and a TGI (CAKI-1 renal) greater than 100 µM. It also gave a GI50 (CCRF-CEM leukemia) of 3.47 µM, a TGI (CCRF-CEM leukemia) of 38.8 µM and a GI50 (COLO 205 colon) of 4.76 µM. The TGI (COLO 205 colon) was 20 µM, the GI50 (DU-145 prostate) was 5.6 µM and the TGI (DU-145 prostate) was greater than 100 µM. For the same compound, the GI50 (EKVX NSCLC) was 9.09 µM, the TGI (EKVX NSCLC) was greater than 100 µM and the GI50 (HCC-2998 colon) was 5.97 µM. For the same compound, the TGI (HCC-2998 colon) was 31.4 µM, the GI50 (HCT-116 colon) was 2710 nM and the TGI (HCT-116 colon) was greater than 100000 nM. For the same compound, the GI50 (HCT-15 colon) was 3.69 µM, the TGI (HCT-15 colon) was greater than 100 µM and the GI50 (HL-60(TB) leukemia) was 2890 nM. For the same compound, the TGI (HL-60(TB) leukemia) was 10.3 µM, the GI50 (HOP-62 NSCLC) was 5.65 µM and the TGI (HOP-62 NSCLC) was greater than 100 µM. It also gave a GI50 (HOP-92 NSCLC) of 3.54 µM, a TGI (HOP-92 NSCLC) of 46.8 µM and a GI50 (HS 578T breast) of 2010 nM. It also gave a TGI (HS 578T breast) of 5.21 µM, a GI50 (HT29 colon) of 3.65 µM and a TGI (HT29 colon) of 25.7 µM. For the same compound, the GI50 (IGROV1 ovarian) was 8.51 µM, the TGI (IGROV1 ovarian) was 70.5 µM and the GI50 (K-562 leukemia) was 1870 nM. For the same compound, the TGI (K-562 leukemia) was greater than 100 µM, the GI50 (KM12 colon) was 2350 nM and the TGI (KM12 colon) was 31.6 µM. It also gave a GI50 (LOX IMVI melanoma) of 4.86 µM, a TGI (LOX IMVI melanoma) greater than 100 µM and a GI50 (M14 melanoma) of 2550 nM. For the same compound, the TGI (M14 melanoma) was 7.24 µM, the GI50 (MALME-3M melanoma) was 5.01 µM and the TGI (MALME-3M melanoma) was greater than 100 µM. For the same compound, the GI50 (MCF7 breast) was 3.83 µM, the TGI (MCF7 breast) was greater than 100 µM and the GI50 (MDA-MB-231 breast) was 5.5 µM. For the same compound, the TGI (MDA-MB-231 breast) was greater than 100 µM, the GI50 (MDA-MB-435) was 559 nM and the TGI (MDA-MB-435) was 2540 nM. For the same compound, the GI50 (MOLT-4 leukemia) was 3.73 µM, the TGI (MOLT-4 leukemia) was 37.5 µM and the GI50 (NCI-H226 lung) was 8.36 µM. It also gave a TGI (NCI-H226 lung) greater than 100 µM, a GI50 (NCI-H23 lung) of 3.87 µM and a TGI (NCI-H23 lung) greater than 100 µM. The GI50 (NCI-H460 lung) was 3.38 µM, the TGI (NCI-H460 lung) was greater than 100 µM and the GI50 (NCI/ADR-RES ovarian) was 2330 nM. For the same compound, the TGI (NCI/ADR-RES ovarian) was 8.48 µM, the GI50 (OVCAR-3 ovarian) was 2480 nM and the TGI (OVCAR-3 ovarian) was 6.05 µM. For the same compound, the GI50 (OVCAR-4 ovarian) was 12.9 µM, the TGI (OVCAR-4 ovarian) was greater than 100 µM and the GI50 (OVCAR-5 ovarian) was 16 µM. It also gave a TGI (OVCAR-5 ovarian) greater than 100 µM, a GI50 (OVCAR-8 ovarian) of 4.44 µM and a TGI (OVCAR-8 ovarian) greater than 100 µM. The GI50 (PC-3 prostate) was 14.3 µM, the TGI (PC-3 prostate) was greater than 100 µM and the GI50 (RPMI-8226 leukemia) was 3.8 µM. It also gave a TGI (RPMI-8226 leukemia) of 52.3 µM, a GI50 (RXF 393 renal) of 3.63 µM and a TGI (RXF 393 renal) of 16.1 µM. The GI50 (SF-268 CNS) was 4.74 µM, the TGI (SF-268 CNS) was greater than 100 µM and the GI50 (SF-295 CNS) was 3.92 µM. For the same compound, the TGI (SF-295 CNS) was 32.4 µM, the GI50 (SF-539 CNS) was 12.8 µM and the TGI (SF-539 CNS) was 48.2 µM. For the same compound, the GI50 (SK-MEL-2 melanoma) was 2810 nM, the TGI (SK-MEL-2 melanoma) was 6.42 µM and the GI50 (SK-MEL-28 melanoma) was 6.3 µM. The TGI (SK-MEL-28 melanoma) was greater than 100 µM, the GI50 (SK-MEL-5 melanoma) was 2850 nM and the TGI (SK-MEL-5 melanoma) was 8.97 µM. For the same compound, the GI50 (SK-OV-3 ovarian) was 5.74 µM, the TGI (SK-OV-3 ovarian) was greater than 100 µM and the GI50 (SN12C renal) was 5.01 µM. It also gave a TGI (SN12C renal) greater than 100 µM, a GI50 (SNB-19 CNS) of 5.23 µM and a TGI (SNB-19 CNS) greater than 100 µM. For the same compound, the GI50 (SNB-75 CNS) was 3.25 µM, the TGI (SNB-75 CNS) was greater than 100 µM and the GI50 (SR leukemia) was 1970 nM. The TGI (SR leukemia) was 18.1 µM, the GI50 (SW-620 colon) was 3 µM and the TGI (SW-620 colon) was greater than 100 µM. The GI50 (T-47D breast) was 6.52 µM, the TGI (T-47D breast) was greater than 100 µM and the GI50 (TK-10 renal) was 8.42 µM. It also gave a TGI (TK-10 renal) of 60.1 µM, a GI50 (U251 CNS) of 4.29 µM and a TGI (U251 CNS) greater than 100 µM. For the same compound, the GI50 (UACC-257 melanoma) was 5.77 µM, the TGI (UACC-257 melanoma) was greater than 100 µM and the GI50 (UACC-62 melanoma) was 4.13 µM. It also gave a TGI (UACC-62 melanoma) greater than 100 µM, a GI50 (UO-31 renal) of 4.35 µM and a TGI (UO-31 renal) of 69.7 µM.
